Laboratory results reported in patent US20080214527A1, “Hiv Integrase Inhibitors” (priority 2005, published 2008).

Tests used:
HIV integrase = HIV integrase (Human immunodeficiency virus type 1 group M subtype B, UniProt P04585); test: Integrase inhibition assay (substrate DNA/target DNA microtiter plate, OD 405 nm); assay type: biochemical
Procedure: The inhibitory activities of the present compounds against integrase were determined by the assay described below.
A substrate DNA solution (2 pmol/μl) and a target DNA solution (5 pmol/μl) were prepared by the same method as that described in Experimental Example 1 of WO 2004/024693. The DNA solutions were heated and then slowly cooled so that they were annealed with each complement. Each sequence of the substrate DNA and the target DNA is the same as described in the Experimental Example.
Streptavidin, obtained from Vector Laboratories, was dissolved in 0.1 M carbonate buffer (composition: 90 mM Na2CO3, 10 mM NaHCO3) at a concentration of 40 μg/ml. After coating each well of microtiter plates (obtained from NUNC) with 50 μl of the above solution at 4° C. over night, each well was washed twice with PBS (composition: […], 0.27 mM KCl, 0.43 mM Na2HPO4, 0.14 mM KH2PO4) and blocked with 300 μl of 1% skim milk in PBS for 30 min. Additionally, each well was washed twice with PBS and added with 50 μl of the substrate DNA solution (2 pmol/μl). The microtiter plates were kept at room temperature for 30 min. Then, each well was washed twice with PBS and once with H2O.
Subsequently, to the each well prepared above were added 51 μl of the reaction buffer prepared from 12 μl of the buffer (composition: 150 mM MOPS (pH 7.2), 75 mM MnCl2, 50 mM 2-mercaptoethanol, 25% glycerol, 500 μg/ml bovine serum albumin-fraction V) and 39 μl of the distilled water. Additionally, 9 μl of an integrase solution (30 pmol) was added thereto and the mixture was mixed well. To the well of negative control (NC) was added 9 μl of the integrase dilution buffer (composition: 20 mM MOPS (pH7.2), 400 mM potassium glutamate, 1 mM EDTA, 0.1% NP-40, 20% glycerol, 1 mM DTT, 4 M urea).
The microtiter plates were incubated at 30° C. for 1 hour. The reaction solution was removed and each well was washed three times with 250 μl of the wash buffer (composition: 150 mM MOPS (pH 7.2), 50 mM 2-mercaptoethanol, 25% glycerol, 500 μg/ml bovine serum albumin-fraction V).
Subsequently, to each well prepared above were added 53 μl of the reaction buffer prepared from 12 μl of the buffer (composition: 150 mM MOPS (pH 7.2), 75 mM MgCl2, 50 mM 2-mercaptoethanol, 25% glycerol, 500 μg/ml bovine serum albumin-fraction V) and 41 μl of the distilled water. Additionally, 6 μl of either a test compound in DMSO or DMSO for positive control (PC) was mixed well. After the microtiter plates were incubated at 30° C. for 30 minutes, 1 μl of target DNA (5 pmol/μl) was added to each well, and the reaction mixture was mixed well.
The microtiter plates were incubated at 30° C. for 10 minutes. The reaction solution was removed and each well was washed twice with PBS. Subsequently, each well of the microtiter plates was filled with 100 μl of anti-digoxigenin antibody labeled with alkaline phosphatase (Sheep Fab fragment: obtained from Boehringer) and incubated at 30° C. for 1 hour. Then, each well was washed twice with 0.05% Tween20 in PBS and once with PBS. Next, 150 μl of the Alkaline phosphatase reaction buffer (composition: 10 mM p-Nitrophenylphosphate (obtained from Vector Laboratories), 5 mM MgCl2, 100 mM NaCl, 100 mM Tris-HCl (pH 9.5)) was added to each well. The microtiter plates were incubated at 30° C. for 2 hours and the reaction was terminated by the addition of 50 μl of 1 N NaOH solution. The optical density (OD) at 405 nm of each well was measured and the percent inhibition was determined by the following expression.
The percent inhibition (%)=100[1−{(C abs.−NC abs.)/(PC abs.−NC abs.)}]
When the percent inhibition (%) is X % at a concentration of ×μg/ml and the percent inhibition (%) is Y % at a concentration of y μg/ml, one of which is more than 50% and the other is less than 50%, IC50 can be determined by the following expression.
IC50(μg/ml)=x−{(X−50)(x−y)/(X−Y)}

[1] = tested on: HIV-1 (IIIB strain) in MT-4 cells; test: MT4 assay: inhibition of virus-induced CPE in MT-4 cells (MTT method); assay type: cell-based; conditions: Human immunodeficiency virus 1, MT4, 96 h, 4-day incubation, read-out: anti-HIV activity EC50
Procedure: MT-4 cells (human T-cell line established by HTLV-I-induced transformation) were cultured in RPMI1640 medium supplemented with 10% fetal calf serum and kanamycin ([…]) in 5% CO2, humidified incubator at 37° C. The stock of HIV-1 was produced as follows. Molt-4 cells persistently infected with HIV-1 (IIIB strain) were cultured for 3 days and culture supernatant was collected. After removal of cells by centrifugation, the supernatant was passed through membrane filter ([…]) and stored as cell-free culture supernatant at −80° C. The infectivity of the stock virus was measured by MTT assay.
Anti-HIV activity in vitro of test compounds was assayed by inhibition of virus-induced CPE in MT-4 cells. MT-4 cells were suspended in culture medium at 2.5×10^5 cells/ml. The cell suspension ([…]) was added to each well of a 96 well flat-bottom microtiter plate containing serial 2-fold dilution of test compounds ([…]). HIV-1 ([…]) was added to each well (4-10 TCID50/well). After 4-day incubation at 37° C., the viability of MT-4 cells was determined by the MTT method using 3-(4,5-dimethylthiazol-2-yl)-2,5-diphenyltetrazolium bromide.
The absorbance (OD) of each well was measured at two wavelengths (560 and 690 nm). All data represent the average values of three wells. The concentration (conc.) achieving 50% protection of HIV replication (EC50) were calculated.

SMILES	melting point [°C]	IC50 (HIV integrase) [nM]	EC50 [1] [nM]
Cn1c(=O)c(C(=O)NCCO)c(O)c2ncc(Cc3ccc(F)cc3COC(N)=O)cc21	238 to 240	–	–
CCNC(=O)OCc1cc(F)ccc1Cc1cnc2c(O)c(C(=O)NCCO)c(=O)n(C)c2c1	180 to 182	–	–
CCNC(=O)OCc1cc(F)ccc1Cc1cnc2c(O)c(C(=O)NCCOC)c(=O)n(C)c2c1	157 to 159	–	–
Cn1c(=O)c(C(=O)NCCO)c(O)c2ncc(Cc3ccc(F)cc3OCCN3CCOCC3)cc21 [Example 9, 7-[4-Fluoro-2-(2-morpholin-4-yl-ethoxy)-benzyl]-4-hydroxy-1-methyl-2-oxo-1,2-dihydro-[1,5]naphthyridine-3-carboxylic acid(2-hydroxy-ethyl)-amide]	161 to 162	< 100	1 to 100
COCC#Cc1cc(F)ccc1Cc1cnc2c(O)c(C(=O)NCCO)c(=O)n(C)c2c1 [Example 13, 7-[4-Fluoro-2-(3-methoxy-prop-1-ynyl)-benzyl]-4-hydroxy-1-methyl-2-oxo-1,2-dihydro-[1,5]naphthyridine-3-carboxylic acid(2-hydroxy-ethyl)-amide]	–	< 100	1 to 100
COCC#Cc1cc(F)ccc1Cc1cnc2c(O)c(C(=O)NCCOC)c(=O)n(C)c2c1 [Example 15, 7-[4-Fluoro-2-(3-methoxy-prop-1-ynyl)-benzyl]-4-hydroxy-1-methyl-2-oxo-1,2-dihydro-[1,5]naphthyridine-3-carboxylic acid(2-methoxy-ethyl)-amide]	179 to 180	< 100	1 to 100
CC(=O)c1cc(F)ccc1Cc1cnc2c(O)c(C(=O)NCCO)c(=O)n(C)c2c1 [Example 17, 7-(2-Acetyl-4-fluoro-benzyl)-4-hydroxy-1-methyl-2-oxo-1,2-dihydro-[1,5]naphthyridine-3-carboxylic acid(2-hydroxy-ethyl)-amide]	212 to 215	< 100	1 to 100
COCCNC(=O)c1c(O)c2ncc(Cc3ccc(F)cc3COC(N)=O)cc2n(C)c1=O [Example 22, Carbamic acid 5-fluoro-2-[8-hydroxy-7-(2-methoxy-ethylcarbamoyl)-5-methyl-6-oxo-5,6-dihydro-[1,5]naphthyridin-3-ylmethyl]-benzyl ester]	180 to 183	< 100	1 to 100
COCc1cc(F)ccc1Cc1cnc2c(O)c(C(=O)NCCO)c(=O)n(C)c2c1 [Example 25, 7-(4-Fluoro-2-methoxymethyl-benzyl)-4-hydroxy-1-methyl-2-oxo-1,2-dihydro-[1,5]naphthyridine-3-carboxylic acid(2-hydroxy-ethyl)-amide]	–	< 100	1 to 100
Cn1c(=O)c(C(=O)NCCO)c(O)c2ncc(Cc3ccc(F)cc3CN3CCCCS3(=O)=O)cc21 [Example 33, 7-[2-(1,1-Dioxo-1lambda*6*-[1,2]thiazinan-2-ylmethyl)-4-fluoro-benzyl]-4-hydroxy-1-methyl-2-oxo-1,2-dihydro-[1,5]naphthyridine-3-carboxylic acid(2-hydroxy-ethyl)-amide]	–	< 100	1 to 100
CN(Cc1cc(F)ccc1Cc1cnc2c(O)c(C(=O)NCCO)c(=O)n(C)c2c1)S(C)(=O)=O [Example 72, 7-{4-Fluoro-2-[(methanesulfonyl-methyl-amino)-methyl]-benzyl}-4-hydroxy-1-methyl-2-oxo-1,2-dihydro-[1,5]naphthyridine-3-carboxylic acid(2-hydroxy-ethyl)-amide]	–	< 100	1 to 100
